Values quoted from earlier work as cited in patent publication US8197866B1, “Herbal treatment for diabetes mellitus, type II” (priority 2009, dated 2012).

How the values were obtained:
[1] = tested on: TPA-mediated tumor promotion
[2] = tested on: streptozocin-induced diabetes

SMILES	effect on TPA-mediated tumor promotion [1]	anti-diabetic activity [2]
O=c1cc(-c2ccc(O)cc2)oc2cc(O)cc(O)c12 [apigenin]	inhibitory effect	–
C[C@@H]1O[C@@H](OC[C@H]2O[C@@H](Oc3cc(O)cc4oc(-c5ccc(O)c(O)c5)cc(=O)c34)[C@H](O)[C@@H](O)[C@@H]2O)[C@H](O)[C@H](O)[C@H]1O [luteolin 5-rutinoside]	–	marked anti-diabetic activity
